Laboratory results reported in BindingDB's records for patent US11279687 (Valo Health, 2022).

Biological target: Nicotinamide phosphoribosyltransferase (Homo sapiens, UniProt P43490)
Assay: Biochemical Inhibition Assay

Chain of Nicotinamide phosphoribosyltransferase (P43490 whole entry): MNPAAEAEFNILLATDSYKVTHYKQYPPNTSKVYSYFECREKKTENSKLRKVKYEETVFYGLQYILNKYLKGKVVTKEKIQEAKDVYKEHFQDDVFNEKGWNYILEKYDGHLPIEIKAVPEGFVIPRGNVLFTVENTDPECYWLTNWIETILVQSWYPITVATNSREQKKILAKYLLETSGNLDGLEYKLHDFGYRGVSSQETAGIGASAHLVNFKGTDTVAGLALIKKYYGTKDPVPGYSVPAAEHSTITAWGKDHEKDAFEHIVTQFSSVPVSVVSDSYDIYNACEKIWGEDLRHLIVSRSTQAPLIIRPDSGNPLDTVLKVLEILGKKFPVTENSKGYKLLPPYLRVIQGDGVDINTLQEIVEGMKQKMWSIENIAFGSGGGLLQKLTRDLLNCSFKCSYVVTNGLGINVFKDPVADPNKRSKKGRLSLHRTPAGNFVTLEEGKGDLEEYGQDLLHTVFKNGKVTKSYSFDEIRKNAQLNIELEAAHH

IC50: 12 nM
SMILES: C[C@H]1C2C[C@H](C[C@@H]1NS(=O)(=O)c1ccc(NC(=O)NCc3cccnc3)cc1)C2(C)C [US11279687, Compound 86]
